{"source": "patent US6030975A", "about": "“Carboxylic acid derivatives, their preparation and use in treating cancer” (priority 1997, dated 2000)", "key": {"DU-145 prostate tumor": {"tested_on": "DU-145 prostate tumor", "assay": "DU-145 Model: human prostate (HTB 81) tumor fragments implanted subcutaneously in nude mice", "assay_type": "in vivo", "protocol": "For example, human tumors which have been grown in nude mice can be transplanted into new recipient mice using tumor fragments which are about 50 mg in size. The day of transplantation is designated as day 0. Five to fifteen days later, the mice are treated with the test compounds given as an intravenous or intraperitoneal injection, in groups of five to ten mice at each dose. Compounds are given daily for either 5, 10 or 15 days, at dosed from 0.1-1000 mg/kg of body weight.\nTumor diameters and body weights are measured periodically. Tumor mass is calculated using the diameters measured with Vernier calipers, and the formula:\n(length×width2)/2=mg of tumor weight\nMean tumor weights are calculated for each treatment group relative to the untreated control tumors. The DU-145 Model is a specific example of this type of assay and is described below.\nHuman tumor fragments from prostate (HTB 81), which had been grown in nude mice were implanted subcutaneously via trochar, in the dorsal side of new recipient nude mice, as is well known in the art. The day of implantation is designated as day 0.\nTreatment was commenced on day 11 post implantation using Compound I-1 of Table I. There were 6 mice in each treatment group with the mode of administration and amounts administered (mg/kg of body weight) described in Table XI. Compound I-1 was administered once a day for 10 days commencing, as earlier stated, at day 11 post implantation (Q1D×10:11)."}, "human ETA receptor": {"target": "T1, human ETA receptor (Homo sapiens, UniProt P25101)", "T1 construct": "expressed in transfected cells; host or cells: CHO cells", "T1 sequence (P25101 21-427)": "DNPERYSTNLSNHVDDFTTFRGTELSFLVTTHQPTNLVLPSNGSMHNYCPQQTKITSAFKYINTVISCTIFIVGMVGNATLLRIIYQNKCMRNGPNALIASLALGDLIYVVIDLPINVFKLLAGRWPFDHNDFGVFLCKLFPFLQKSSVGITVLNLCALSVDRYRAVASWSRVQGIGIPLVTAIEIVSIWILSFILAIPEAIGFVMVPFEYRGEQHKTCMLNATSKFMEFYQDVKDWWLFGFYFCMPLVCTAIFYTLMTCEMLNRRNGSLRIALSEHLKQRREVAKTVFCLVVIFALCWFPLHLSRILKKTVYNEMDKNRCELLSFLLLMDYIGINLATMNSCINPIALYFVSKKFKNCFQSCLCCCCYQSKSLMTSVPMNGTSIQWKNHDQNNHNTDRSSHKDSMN", "assay": "ETA receptor binding assay ([125I]-ET1) on membranes of CHO cells expressing cloned human ETA receptor", "conditions": "Table III", "quoted_text": "(§1) Cloned human ETA receptor-expressing CHO cells and guinea pig cerebellar membranes with >60% ETB compared with ETA receptors were used for binding studies.\nThe ETA receptor-expressing CHO cells were grown in F12 medium containing 10% fetal calf serum, 1% glutamine, 100 U/ml penicillin and 0.2% streptomycin (Gibco BRL, Gaithersburg, Md., USA). After 48 h, the cells were washed with PBS and incubated with 0.05% trypsin-containing PBS for 5 min. Neutralization was then carried out with F12 medium, and the cells were collected by centrifugation at 300×g. To lyze the cells, the pellet was briefly washed with lysis buffer (5 mM Tris-HCl, pH 7.4 with 10% glycerol) and then incubated at a concentration of 10^7 cells/ml of lysis buffer at 4° C. for 30 min. The membranes were centrifuged at 20,000×g for 10 min., and the pellet was stored in liquid nitrogen.\n(§2) The nonspecific binding was determined using 10^-7 M ET1. After 30 min., the free and bound radioligand were separated by filtration through GF/B glass fiber filters (Whatman, England) on a Skatron cell collector (Skatron, Lier, Norway) and the filters were washed with ice-cold Tris-HCl buffer, pH 7.4 with 0.2% BSA. The radioactivity collected on the filters was quantified using a Packard 2200 CA liquid scintillation counter.\nThe Ki values shown in Table A were determined by non-linear regression analysis using the LIGAND program."}, "ETB receptor": {"target": "T2, ETB receptor (Cavia porcellus, UniProt H0VTF3)", "T2 construct": "Guinea pig cerebella were homogenized; from tissue; host or cells: guinea pig cerebellum membranes", "T2 sequence (H0VTF3 27-415)": "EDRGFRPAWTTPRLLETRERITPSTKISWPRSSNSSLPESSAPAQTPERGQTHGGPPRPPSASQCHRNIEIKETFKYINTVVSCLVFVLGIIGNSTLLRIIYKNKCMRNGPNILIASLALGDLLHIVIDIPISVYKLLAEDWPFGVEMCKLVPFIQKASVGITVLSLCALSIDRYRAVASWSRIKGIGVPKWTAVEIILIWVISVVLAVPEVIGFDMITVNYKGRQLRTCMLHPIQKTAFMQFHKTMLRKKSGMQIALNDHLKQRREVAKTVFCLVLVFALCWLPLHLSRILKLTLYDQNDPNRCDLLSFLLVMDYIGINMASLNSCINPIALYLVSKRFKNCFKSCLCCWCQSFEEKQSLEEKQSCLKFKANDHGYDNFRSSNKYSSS", "assay": "ETB receptor binding assay ([125I]-RZ3) on guinea pig cerebellar membranes", "conditions": "Table III", "quoted_text": "as §1\nGuinea pig cerebella were homogenized in a Potter-Elvejhem homogenizer and membranes were obtained by differential centrifugation at 1000×g for 10 min. and repeated centrifugation of the supernatant at 20,000×g for 10 min.\nas §2"}}, "data": [{"smiles": "COC(=O)C(Oc1nc(OC)cc(OC)n1)C(OC)(c1ccccc1)c1ccccc1", "note": "(stereo not drawn) [Compound I-1, Methyl 2-(4,6-dimethoxy-pyrimidin-2-yloxy)-3-methoxy-3,3-diphenylpropionate]", "values": [{"measurement": "Days for Tumor Weight = 1000 mg", "setting": "DU-145 prostate tumor; 100 mg/kg IV, Q1Dx10:11", "value": 39.3, "unit": "days"}, {"measurement": "Mean Tumor Weight (MTW) on Day 33", "setting": "DU-145 prostate tumor; 100 mg/kg IV, Q1Dx10:11", "value": 561, "unit": "mg"}, {"measurement": "Days for Tumor Weight = 1000 mg", "setting": "DU-145 prostate tumor; 150 mg/kg IP, Q1DX10:11", "value": 59.3, "unit": "days"}, {"measurement": "Mean Tumor Weight (MTW) on Day 33", "setting": "DU-145 prostate tumor; 150 mg/kg IP, Q1DX10:11", "value": 407, "unit": "mg"}, {"measurement": "Days for Tumor Weight = 1000 mg", "setting": "DU-145 prostate tumor; 150 mg/kg IV, Q1DX10:11", "value": 37.4, "unit": "days"}, {"measurement": "Mean Tumor Weight (MTW) on Day 33", "setting": "DU-145 prostate tumor; 150 mg/kg IV, Q1DX10:11", "value": 793, "unit": "mg"}, {"measurement": "Days for Tumor Weight = 1000 mg", "setting": "DU-145 prostate tumor; 220 mg/kg IP, Q1DX10:11", "value": 50.9, "unit": "days"}, {"measurement": "Mean Tumor Weight (MTW) on Day 33", "setting": "DU-145 prostate tumor; 220 mg/kg IP, Q1DX10:11", "value": 470, "unit": "mg"}, {"measurement": "MTW % T/C", "setting": "DU-145 prostate tumor; Day 33, 100 mg/kg IV, Q1Dx10:11", "value": 45.54, "unit": "%"}, {"measurement": "MTW % T/C", "setting": "DU-145 prostate tumor; Day 33, 150 mg/kg IP, Q1DX10:11", "value": 33.04, "unit": "%"}, {"measurement": "MTW % T/C", "setting": "DU-145 prostate tumor; Day 33, 150 mg/kg IV, Q1DX10:11", "value": 64.37, "unit": "%"}, {"measurement": "MTW % T/C", "setting": "DU-145 prostate tumor; Day 33, 220 mg/kg IP, Q1DX10:11", "value": 38.15, "unit": "%"}, {"measurement": "response to administration (reduction in the %T/C Mean Tumor Weight)", "setting": "DU-145 prostate tumor; all doses, IV and IP", "value": "all treatment groups responded"}]}, {"smiles": "COc1cc(OC)nc(OC(C(=O)O)C(OC)(c2ccccc2)c2ccccc2)n1", "note": "(stereo not drawn) [Compound I-2, 2-(4,6-Dimethoxy-pyrimidin-2-yloxy)-3-methoxy-3,3-diphenylpropionic acid]", "values": [{"measurement": "Ki", "setting": "human ETA receptor", "value": 6, "unit": "nM"}]}, {"smiles": "CCOC(c1ccccc1)(c1ccccc1)C(Oc1nc(OC)cc(OC)n1)C(=O)O", "note": "(stereo not drawn) [Compound I-4]", "values": [{"measurement": "Ki", "setting": "human ETA receptor", "value": 7, "unit": "nM"}]}, {"smiles": "CCCOC(c1ccccc1)(c1ccccc1)C(Oc1nc(OC)cc(OC)n1)C(=O)O", "note": "(stereo not drawn) [Compound I-12]", "values": [{"measurement": "Ki", "setting": "human ETA receptor", "value": 19, "unit": "nM"}]}, {"smiles": "COc1cc(OC)nc(OC(C(=O)O)C(OC)(c2ccc(F)cc2)c2ccc(F)cc2)n1", "note": "(stereo not drawn) [Compound I-60]", "values": [{"measurement": "Ki", "setting": "human ETA receptor", "value": 33, "unit": "nM"}, {"measurement": "Ki", "setting": "ETB receptor", "value": 970, "unit": "nM"}]}]}
